Source: patent publication EP0778025A1, “Use of 8,9-dehydroestrone for the manufacture of a medicament for the treatment of diseases caused by free radicals” (AMERICAN HOME PRODUCTS CORPORATION, priority 1995, dated 1997)
Where two headings read alike, the source gives them in different places.

How the values were obtained:
[1] = test system: low density lipoprotein (LDL); assay: Inhibition of Cu++ mediated LDL oxidation (TBARS method)
[2] = test system: J774 macrophages; assay: Binding of Cu++-treated 125I-LDL to J774 macrophages (scavenger lipoprotein receptors); assay type: cell-based; conditions: Mus musculus
Source text: In the first test procedure, radiolabeled-LDL (^125I-LDL) (McFarlane AS, In: Munro HN, Allison JB, eds. Mammalian Protein metabolism, Vol. 1. New York: Academic Press 297-341 (1964)) was modified by exposure to Cu++ in the presence and absence of 8,9-dehydroestrone. Next, J774 macrophages, which express scavenger lipoprotein receptors which bind oxidatively modified-LDL, were exposed to the treated ^125I-LDL. […] By comparison, the same concentrations of estrone reduced the binding of LDL that was oxidized by 39% and 0%, respectively. Since binding and metabolism of oxidized LDL by macrophages is though to contribute strongly to the development of foam cells and therefore, atherosclerotic plaque, this effect of reducing LDL oxidation and subsequent binding to scavenger receptors is thought to be of significant benefit.

[3] = test system: porcine aortic endothelial cells (PAEC); assay: MTT cytotoxicity assay of porcine aortic endothelial cells exposed to Cu++-treated LDL; assay type: cell-based; conditions: 25 ug/ml LDL Cu++ treated in presence of compound (2.5µM stated for 8,9-dehydroestrone), 24 hr incubation, 2% viable without compound
Experimental: In the second test procedure, porcine aortic endothelial cells (PAEC) were exposed to LDL that had been modified as above, by exposure to Cu++ in the presence and absence of 8,9-dehydroestrone. […] Subsequent to a 24 hr incubation of the cells with the treated LDL, an MTT assay was performed to assess cytotoxicity (Hansen MB, J Immu Methods 119:203-210 (1989)). This test procedure assesses the percent of cells that are viable (live) in a given assay. In the assay, following exposure to 25 ug/ml LDL oxidized in the absence of compound, only 2% of the cells remained viable. In contrast, the percent live cells following exposure to LDL Cu++ treated in the presence of 8,9-dehydroestrone (2.5µM) was 100% or greater.

[4] = J774, read-out: reduction of binding of the LDL that was oxidized

| SMILES | IC50 ([1]; Cu++ mediated LDL oxidation, TBARS) | inhibition of LDL oxidation ([1]; maximal inhibition, stated for the test procedure in general (Cu++ or endothelial cell induced)) | inhibition at 0.25 µM [2, 4] | inhibition at 2.5 µM [2, 4] | percent live cells [3] | inhibition at 0.25 µM ([2]; 0.25 µM compound present during Cu++ oxidation of 125I-LDL, J774 macrophages, read-out: reduction of binding of the LDL that was oxidized) | inhibition at 2.5 µM ([2]; 2.5 µM compound present during Cu++ oxidation of 125I-LDL, J774 macrophages, read-out: reduction of binding of the LDL that was oxidized) |
| --- | --- | --- | --- | --- | --- | --- | --- |
| C[C@]12CCC3=C(CCc4cc(O)ccc43)[C@@H]1CCC2=O [8,9-dehydroestrone] | 0.22 µM | ≤ 100% | 56% | 72% | ≥ 100% | – | – |
| C[C@]12CC[C@@H]3c4ccc(O)cc4CC[C@H]3[C@@H]1CCC2=O [estrone] | – | – | – | – | – | 0% | 39% |
| C[C@]12CC[C@H]3C(=CCc4cc(O)ccc43)[C@@H]1CCC2=O [Equilin, reference compound] | – | – | – | – | 4% | – | – |
